Experimental data as given in patent publication US9732094B2, “Arylquinazolines” (Merck Patent GmbH, priority 2013, dated 2017).
Read-outs that look alike come from different tables or passages of the source.

Legend:
DNA-PK = DNA-PK (Homo sapiens (Human), UniProt P78527); assay: DNA-PK assay (biochemical), flashplate 33P-ATP kinase assay; conditions: biochemical DNA-PK assay
Summary of the method: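 Reactions ran in streptavidin-coated flashplates and were halted by 200 mM EDTA, with a further 30 min at room temperature before saline washing.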

[1] = target: DNA-PK phosphorylation at serine 2056 (Homo sapiens (Human), UniProt P78527); assay: DNA-PK phosphorylation at serine 2056 (cellular), bleomycin-treated HCT116 cells, ELISA; type: cell-based; conditions: cellular DNA-PK phosphorylation at serine 2056, HCT116; read-out: IC50 pDNA-PK
Summary of the method: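 Chemiluminescent ELISA read-out; phospho-specific signal normalised to total DNA-PKcs. Cells (HCT116) exposed 6 h to test compound plus 10 μM bleomycin to induce double-strand breaks; DMSO control served as blank.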

Kv11.1 (hERG) = Kv11.1 (hERG) (Homo sapiens (Human), UniProt Q12809); assay: Kv11.1 (hERG) ion channel activity (patch clamp assay), HEK293 cells transfected with hERG gene; conditions: hERG patch clamp assay (cells without asterisk)
Chain of Kv11.1 (hERG) (Q12809 whole entry): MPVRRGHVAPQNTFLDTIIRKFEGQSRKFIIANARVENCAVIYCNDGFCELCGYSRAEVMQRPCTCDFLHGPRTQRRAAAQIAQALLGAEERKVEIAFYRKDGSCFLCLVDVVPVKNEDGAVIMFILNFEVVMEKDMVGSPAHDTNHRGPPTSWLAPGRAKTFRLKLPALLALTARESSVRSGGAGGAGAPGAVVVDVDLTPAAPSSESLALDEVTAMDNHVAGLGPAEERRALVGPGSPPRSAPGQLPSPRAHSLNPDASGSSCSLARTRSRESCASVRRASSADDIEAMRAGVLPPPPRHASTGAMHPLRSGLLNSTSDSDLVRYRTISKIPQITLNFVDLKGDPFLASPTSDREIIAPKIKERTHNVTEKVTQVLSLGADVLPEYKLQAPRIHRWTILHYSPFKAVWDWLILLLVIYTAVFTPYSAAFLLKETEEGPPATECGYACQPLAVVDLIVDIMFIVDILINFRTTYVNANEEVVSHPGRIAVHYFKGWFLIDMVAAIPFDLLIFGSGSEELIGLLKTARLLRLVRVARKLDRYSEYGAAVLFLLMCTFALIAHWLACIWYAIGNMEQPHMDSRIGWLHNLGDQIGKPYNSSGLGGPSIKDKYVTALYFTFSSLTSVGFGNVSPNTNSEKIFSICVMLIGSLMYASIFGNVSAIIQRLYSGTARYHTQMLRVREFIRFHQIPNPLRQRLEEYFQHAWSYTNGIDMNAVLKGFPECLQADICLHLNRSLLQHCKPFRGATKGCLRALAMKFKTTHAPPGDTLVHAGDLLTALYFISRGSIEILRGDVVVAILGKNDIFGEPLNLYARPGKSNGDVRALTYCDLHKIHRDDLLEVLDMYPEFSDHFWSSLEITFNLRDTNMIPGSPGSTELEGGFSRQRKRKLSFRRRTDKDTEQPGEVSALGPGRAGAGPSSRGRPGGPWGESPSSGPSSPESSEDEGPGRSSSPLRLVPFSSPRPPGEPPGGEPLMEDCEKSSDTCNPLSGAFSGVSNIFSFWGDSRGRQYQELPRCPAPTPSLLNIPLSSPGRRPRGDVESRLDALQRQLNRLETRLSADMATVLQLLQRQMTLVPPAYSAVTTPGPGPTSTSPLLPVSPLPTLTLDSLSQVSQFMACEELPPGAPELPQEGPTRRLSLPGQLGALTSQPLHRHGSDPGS
Experimental: C) Kv11.1 (hERG) Ion Channel Activity (Patch Clamp Assay)
The patch-clamp measurement was carried out at room temperature in whole-cell configuration on human embryonic kidney cells (HEK293) which have been transfected in a stable manner with the hERG gene.
The whole-cell configurations were carried out using an automated patch clamp device (Patchliner™, Nanion Technologies, Munich). […] The glass chip has a hole of defined size to which the cell is transferred into the Gigaseal by application of a reduced pressure and brought into the whole-cell configuration. Buffer, cell suspension and test substances were added to microchannels of the chip using a Teflon-coated pipette. The cells were clamped to a holding potential of −80 mV. For measurement of substance-promoted inhibition of the Kv11.1 channel, the following voltage protocol was applied at 10-second intervals: 51 ms/−80 mV, 500 ms/+40 mV, 500 ms/−40 mV, 200 ms/−80 mV. The leakage current is subtracted by means of the P4 method. The cells were resuspended in extracellular buffer (EC) and applied to the chip. After the cell had been collected, the seal was improved by addition of a seal enhancer buffer. As soon as the whole-cell configuration had been reached, the seal enhancer buffer was washed out and replaced by extracellular buffer. The measurement started in EC for 1.5 min. DMSO (vehicle control, 0.1% of DMSO) was then applied, and the control current was recorded for 3 min. The test substance was subsequently added twice in the same concentration, and the potassium current was measured for 3.5 min in each case.
The reference substance used was the Kv11.1 (hERG) ion channel blocker quinidine. The effects of test substances and quinidine were standardised to the associated vehicle control. The effect on the Kv11.1 (hERG) channel activity was assessed from the potassium current at −40 mV. For the calculation, the current was evaluated for the respective final trace.
During the measurement, an aliquot of the test substance was taken for concentration determination. The sample was measured immediately by HPLC, and the final concentration was determined from a calibration curve.

Compound: Cn1c(C(O)c2cc(-c3ncnc4cc(N5CCOCC5)ccc34)ccc2F)cccc1=O (stereo not drawn) [Example 366, 6-{[2-Fluoro-5-(7-morpholin-4-yl-quinazolin-4-yl)-phenyl]hydroxy-methyl}-1-methyl-1H-pyridin-2-one]
- IC50 (DNA-PK): 0.007 to 0.03 µM
- IC50 [1]: 5 to 10 µM
- Ki (Kv11.1 (hERG); read-out: Ki [Kv1.11 hERG]): > 25 µM

Compound: O=c1ccc(C(O)c2ccc(F)c(-c3ncnc4cc(N5CCOCC5)ccc34)c2)n[nH]1 (stereo not drawn) [Example 367, 6-{[4-Fluoro-3-(7-morpholin-4-yl-quinazolin-4-yl)-phenyl]hydroxy-methyl}-2H-pyridazin-3-one]
- IC50 (DNA-PK): < 0.003 µM
- IC50 [1]: 0.5 to 5 µM
- Ki (Kv11.1 (hERG); read-out: Ki [Kv1.11 hERG]): > 25 µM

Compound: Cn1c(C(O)c2cc(-c3ncnc4cc(N5CCOCC5)ccc34)c(F)cc2Cl)nccc1=O (stereo not drawn) [Example 368, 2-{[2-Chloro-4-fluoro-5-(7-morpholin-4-yl-quinazolin-4-yl)-phenyl]hydroxy-methyl}-3-methyl-3H-pyrimidin-4-one]
- IC50 (DNA-PK): 0.007 to 0.03 µM
- IC50 [1]: 5 to 10 µM
- Ki (Kv11.1 (hERG); read-out: Ki [Kv1.11 hERG]): > 25 µM

Compound: OC(c1cc(-c2ncnc3cc(N4CCOCC4)ccc23)ccc1Cl)c1nccn2ccnc12 (stereo not drawn) [Example 369, [2-Chloro-5-(7-morpholin-4-yl-quinazolin-4-yl)-phenyl]imidazo-[1,2-a]pyrazin-8-yl-methanol]
- IC50 (DNA-PK): 0.007 to 0.03 µM
- IC50 [1]: 5 to 10 µM
- Ki (Kv11.1 (hERG); Ki [Kv1.11 hERG]): 15 to 25 µM

Compound: Cn1cnc2c(C(O)c3cc(-c4ncnc5cc(N6CCOCC6)ccc45)ccc3F)ncnc21 (stereo not drawn) [Example 370, [2-Fluoro-5-(7-morpholin-4-yl-quinazolin-4-yl)-phenyl]-(9-methyl-9H-purin-6-yl)-methanol]
- IC50 (DNA-PK): 0.007 to 0.03 µM
- IC50 [1]: 0.5 to 5 µM
- Ki (Kv11.1 (hERG); read-out: Ki [Kv1.11 hERG]): > 25 µM

Compound: Cn1cnc2c(C(O)c3cc(-c4ncnc5cc(N6CCOCC6)ccc45)ccc3Cl)ncnc21 (stereo not drawn) [Example 371, [2-Chloro-5-(7-morpholin-4-yl-quinazolin-4-yl)-phenyl]-(9-methyl-9H-purin-6-yl)-methanol]
- IC50 (DNA-PK): 0.007 to 0.03 µM
- IC50 [1]: 0.5 to 5 µM
- Ki (Kv11.1 (hERG); Ki [Kv1.11 hERG]): 10 to 15 µM

Compound: OC(c1cc(-c2ncnc3cc(N4CCOCC4)ccc23)ccc1F)c1nccn2ccnc12 (stereo not drawn) [Example 372, [2-Fluoro-5-(7-morpholin-4-yl-quinazolin-4-yl)-phenyl]imidazo-[1,2-a]pyrazin-8-yl-methanol]
- IC50 (DNA-PK): 0.007 to 0.03 µM
- IC50 [1]: 0.5 to 5 µM
- Ki (Kv11.1 (hERG); read-out: Ki [Kv1.11 hERG]): > 25 µM

Compound: OC(c1cc(-c2ncnc3cc(N4CCOCC4)ccc23)ccc1F)c1cccc2nncn12 (stereo not drawn) [Example 373, [2-Fluoro-5-(7-morpholin-4-yl-quinazolin-4-yl)-phenyl]-[1,2,4]-triazolo[4,3-a]pyridin-5-ylmethanol]
- IC50 (DNA-PK): 0.003 to 0.007 µM
- IC50 [1]: 0.5 to 5 µM
- Ki (Kv11.1 (hERG); Ki [Kv1.11 hERG]): 15 to 25 µM

Compound: OC(c1cc(-c2ncnc3cc(N4CCOCC4)ccc23)ccc1F)c1ncnc2ccoc12 (stereo not drawn) [Example 374, [2-Fluoro-5-(7-morpholin-4-yl-quinazolin-4-yl)-phenyl]furo[3,2-d}-pyrimidin-4-yl-methanol]
- IC50 (DNA-PK): < 0.003 µM
- IC50 [1]: 0.5 to 5 µM
- Ki (Kv11.1 (hERG); Ki [Kv1.11 hERG]): 15 to 25 µM

Compound: Cn1c(C(O)c2ccc(F)c(-c3ncnc4cc(N5CCOCC5)ccc34)c2)cccc1=O (stereo not drawn) [Example 375, 6-{[4-Fluoro-3-(7-morpholin-4-yl-quinazolin-4-yl)-phenyl]hydroxy-methyl}-1-methyl-1H-pyridin-2-one]
- IC50 (DNA-PK): < 0.003 µM
- IC50 [1]: 0.5 to 5 µM
- Ki (Kv11.1 (hERG); read-out: Ki [Kv1.11 hERG]): > 25 µM

Compound: Cn1c(C(O)c2ccc(F)c(-c3ncnc4cc(N5CCOCC5)ccc34)c2)cccc1=O (stereo not drawn) [Example 376, 6-{[4-Fluoro-3-(7-morpholin-4-yl-quinazolin-4-yl)-phenyl]hydroxy-methyl}-1-methyl-1H-pyridin-2-one]
- IC50 (DNA-PK): < 0.003 µM
- IC50 [1]: < 0.5 µM
- Ki (Kv11.1 (hERG); read-out: Ki [Kv1.11 hERG]): > 25 µM

Compound: Cc1cncnc1C(C(N)=O)c1cc(-c2ncnc3cc(N4CCOCC4)ccc23)ccc1Cl (stereo not drawn) [Example 377, 2-[2-Chloro-5-(7-morpholin-4-yl-quinazolin-4-yl)-phenyl]-2-(5-methyl-pyrimidin-4-yl)-acetamide]
- IC50 (DNA-PK): 0.003 to 0.007 µM
- IC50 [1]: 0.5 to 5 µM
- Ki (Kv11.1 (hERG); Ki [Kv1.11 hERG]): 15 to 25 µM

Compound: Cc1cncnc1C(C(N)=O)c1cc(-c2ncnc3cc(N4CCOCC4)ccc23)ccc1Cl (stereo not drawn) [Example 378, 2-[2-Chloro-5-(7-morpholin-4-yl-quinazolin-4-yl)-phenyl]-2-(5-methyl-pyrimidin-4-yl)-acetamide]
- IC50 (DNA-PK): 0.003 to 0.007 µM
- IC50 [1]: 0.5 to 5 µM
- Ki (Kv11.1 (hERG); read-out: Ki [Kv1.11 hERG]): > 25 µM

Compound: OC(c1cc(-c2ncnc3cc(N4CCOCC4)ccc23)c(F)cc1F)c1nnc2ccccn12 (stereo not drawn) [Example 379, [2,4-Difluoro-5-(7-morpholin-4-yl-quinazolin-4-yl)-phenyl]-[1,2.4]-triazolo[4,3-a]pyridin-3-ylmethanol]
- IC50 (DNA-PK): 0.003 to 0.007 µM
- IC50 [1]: 0.5 to 5 µM
- Ki (Kv11.1 (hERG); read-out: Ki [Kv1.11 hERG]): > 25 µM

Compound: Cn1c(C(O)c2cc(-c3ncnc4cc(N5CCOCC5)ccc34)c(F)cc2F)cccc1=O (stereo not drawn) [Example 380, 6-{[2,4-Difluoro-5-(7-morpholin-4-yl-quinazolin-4-yl)-phenyl]hydroxy-methyl}-1-methyl-1H-pyridin-2-one]
- IC50 (DNA-PK): 0.003 to 0.007 µM
- IC50 [1]: 0.5 to 5 µM
- Ki (Kv11.1 (hERG); read-out: Ki [Kv1.11 hERG]): > 25 µM

Compound: Cn1c(C(O)c2cc(-c3ncnc4cc(N5CCOCC5)ccc34)c(F)cc2F)cccc1=O (stereo not drawn) [Example 381, 6-{[2,4-Difluoro-5-(7-morpholin-4-yl-quinazolin-4-yl)-phenyl]hydroxy-methyl}-1-methyl-1H-pyridin-2-one]
- IC50 (DNA-PK): < 0.003 µM
- IC50 [1]: 0.5 to 5 µM
- Ki (Kv11.1 (hERG); read-out: Ki [Kv1.11 hERG]): > 25 µM

Compound: Cn1c(C(O)c2cc(-c3ncnc4cc(N5CCOCC5)ccc34)c(F)cc2Cl)cccc1=O (stereo not drawn) [Example 382, 6-{[2-Chloro-4-fluoro-5-(7-morpholin-4-yl-quinazolin-4-yl)-phenyl]hydroxy-melhyl}-1-methyl-1H-pyridin-2-one]
- IC50 (DNA-PK): 0.007 to 0.03 µM
- IC50 [1]: 0.5 to 5 µM
- Ki (Kv11.1 (hERG); Ki [Kv1.11 hERG]): 15 to 25 µM

Compound: Cn1c(C(O)c2cc(-c3ncnc4cc(N5CCOCC5)ccc34)c(F)cc2Cl)cccc1=O (stereo not drawn) [Example 383, 6-{[2-Chloro-4-fluoro-5-(7-morpholin-4-yl-quinazolin-4-yl)-phenyl]hydroxy-methyl}-1-methyl-1H-pyridin-2-one]
- IC50 (DNA-PK): < 0.003 µM
- IC50 [1]: < 0.5 µM
- Ki (Kv11.1 (hERG); read-out: Ki [Kv1.11 hERG]): > 25 µM

Compound: Cn1cnc2ncnc([C@H](O)c3cc(-c4ncnc5cc(N6CCOCC6)ccc45)c(F)cc3F)c21 [Example 384, (R)-[2,4-Difluoro-5-(7-morpholin-4-yl-quinazolin-4-yl)-phenyl]-(7-methyl-7H-purin-6-yl)-methanol]
- IC50 (DNA-PK): 0.007 to 0.03 µM
- IC50 [1]: 10 to 30 µM
- Ki (Kv11.1 (hERG); read-out: Ki [Kv1.11 hERG]): > 25 µM

Compound: Cn1ncc2c(C(O)c3cc(-c4ncnc5cc(N6CCOCC6)ccc45)ccc3Cl)ncnc21 (stereo not drawn) [Example 385, [2-Chloro-5-(7-morpholin-4-yl-quinazolin-4-yl)-phenyl]-(1-methyl-1H-pyrazolo[3,4-d}-pyrimidin-4-yl)-methanol]
- IC50 (DNA-PK): 0.007 to 0.03 µM
- IC50 [1]: 0.5 to 5 µM
- Ki (Kv11.1 (hERG); read-out: Ki [Kv1.11 hERG]): > 25 µM

Compound: OC(c1cc(-c2ncnc3cc(N4CCOCC4)ccc23)c(F)cc1F)c1ncnc2c1CCNC2 (stereo not drawn) [Example 387, [2,4-Difluoro-5-(7-morpholin-4-yl-quinazolin-4-yl)-phenyl]-(5,6,7,8-tetrahydropyrido-[3,4-d}pyrimidin-4-yl)-methanol]
- IC50 (DNA-PK): 0.007 to 0.03 µM
- IC50 [1]: 0.5 to 5 µM
- Ki (Kv11.1 (hERG); Ki [Kv1.11 hERG]): 15 to 25 µM

Compound: OC(c1ccc(F)c(-c2ncnc3cc(N4CCOCC4)ccc23)c1)c1ncnc2c1CCNC2 (stereo not drawn) [Example 388, [4-Fluoro-3-(7-morpholin-4-yl-quinazolin-4-yl)-phenyl]-(5,6,7,8-tetrahydropyrido-[3,4-d}pyrimidin-4-yl)-methanol]
- IC50 (DNA-PK): 0.007 to 0.03 µM
- IC50 [1]: 0.5 to 5 µM
- Ki (Kv11.1 (hERG); Ki [Kv1.11 hERG]): 10 to 15 µM

Compound: OC(c1cc(-c2ncnc3cc(N4CCOCC4)ccc23)ccc1Cl)c1ncncc1F (stereo not drawn) [Example 389, [2-Chloro-5-(7-morpholin-4-yl-quinazolin-4-yl)-phenyl]-(5-fluoro-pyrimidin-4-yl)-methanol]
- IC50 (DNA-PK): 0.007 to 0.03 µM
- IC50 [1]: 5 to 10 µM
- Ki (Kv11.1 (hERG); Ki [Kv1.11 hERG]): 10 to 15 µM

Compound: OC(c1cc(-c2ncnc3cc(N4CCOCC4)ccc23)ccc1Cl)c1ncncc1F (stereo not drawn) [Example 390, [2-Chloro-5-(7-morpholin-4-yl-quinazolin-4-yl)-phenyl]-(5-fluoro-pyrimidin-4-yl)-methanol]
- IC50 (DNA-PK): 0.003 to 0.007 µM
- IC50 [1]: 0.5 to 5 µM
- Ki (Kv11.1 (hERG); Ki [Kv1.11 hERG]): 15 to 25 µM

Compound: Cn1ncc2c(C(O)c3cc(-c4ncnc5cc(N6CCOCC6)ccc45)ccc3F)ncnc21 (stereo not drawn) [Example 391, [2-Fluoro-5-(7-morpholin-4-yl-quinazolin-4-yl)-phenyl]-(1-methyl-1H-pyrazolo[3,4-d}-pyrimidin-4-yl)-methanol]
- IC50 (DNA-PK): 0.007 to 0.03 µM
- IC50 [1]: 0.5 to 5 µM
- Ki (Kv11.1 (hERG); Ki [Kv1.11 hERG]): 15 to 25 µM

Compound: Cc1cncnc1C(O)c1cc(-c2ncnc3cc(N4CCOCC4)ccc23)ccc1F (stereo not drawn) [Example 392, [2-Fluoro-5-(7-morpholin-4-yl-quinazolin-4-yl)-phenyl]-(5-methyl-pyrimidin-4-yl)-methanol]
- IC50 (DNA-PK): 0.003 to 0.007 µM
- IC50 [1]: 0.5 to 5 µM
- Ki (Kv11.1 (hERG); Ki [Kv1.11 hERG]): 15 to 25 µM

Compound: Cc1nccnc1C(O)c1cc(-c2ncnc3cc(N4CCOCC4)ccc23)ccc1F (stereo not drawn) [Example 393, [2-Fluoro-5-(7-morpholin-4-yl-quinazolin-4-yl)-phenyl]-(3-methyl-pyrazin-2-yl)-methanol]
- IC50 (DNA-PK): 0.003 to 0.007 µM
- IC50 [1]: 5 to 10 µM
- Ki (Kv11.1 (hERG); Ki [Kv1.11 hERG]): 15 to 25 µM

Compound: COc1nccnc1C(O)c1cc(-c2ncnc3cc(N4CCOCC4)ccc23)ccc1F (stereo not drawn) [Example 394, [2-Fluoro-5-(7-morpholin-4-yl-quinazolin-4-yl)-phenyl]-(3-methoxy-pyrazin-2-yl)-methanol]
- IC50 (DNA-PK): 0.003 to 0.007 µM
- IC50 [1]: 0.5 to 5 µM
- Ki (Kv11.1 (hERG); read-out: Ki [Kv1.11 hERG]): < 10 µM

Compound: OC(c1cc(-c2ncnc3cc(N4CCOCC4)ccc23)c(F)cc1Cl)c1nccn2ccnc12 (stereo not drawn) [Example 397, [2-Chloro-4-fluoro-5-(7-morpholin-4-yl-quinazolin-4-yl)-phenyl]imidazo-[1,2-a]pyrazin-8-yl-methanol]
- IC50 (DNA-PK): 0.003 to 0.007 µM
- IC50 [1]: < 0.5 µM
- Ki (Kv11.1 (hERG); read-out: Ki [Kv1.11 hERG]): > 25 µM
